In US9499511B2, “N-substituted hydroxylamine derivatives with carbon-based leaving groups” (The Johns Hopkins University, priority 2011, dated 2016):
Read-outs that look alike come from different tables or passages of the source. Values belong to the molecule of their own block, whether it stands above or below them.

Key:
[1] = pKa of carbanion byproduct (concentration of b / b-H+ as a function of pH, UV-Vis); assay type: physicochemical
Text: FIG. 2A and FIG. 2B show a graph plotting the concentration of 4b, 4b-H^+ (FIG. 2A) and 6b, 6b-H^+ (FIG. 2B) as a function of pH. In FIG. 2A, the squares represent 4b-H^+ (λmax=298 nm), and the circles represent carbanion 4b (λmax=261 nm). In FIG. 2B, the squares represent 6b-H^+ (λmax=270 nm), where the last three data points were omitted due to spectral overlap, and the circles represent carbanion 6b (λmax=253 nm).
NMR spectra were obtained on a Bruker Avance 400 MHz FT-NMR spectrometer. All chemical shifts are reported in parts per million (ppm) relative to residual CHCl3 (7.26 ppm for ^1H, 77.23 ppm for ^13C), residual DMSO (2.50 ppm for ^1H, 39.52 for ^13C), or residual H2O (4.8 ppm for ^1H). High-resolution mass spectra were obtained on a VG Analytical VG70SE magnetic sector mass spectrometer operating in fast atom bombardment (FAB) mode. Ultraviolet-Visible (UV-Vis) absorption spectra were obtained using a Hewlett Packard 8453 diode array spectrometer. Phosphate-buffered saline (PBS) solutions (0.1 M) were prepared with 140 mM NaCl and 3 mM KCl, with 100 μM diethylenetriaminepentaacetic acid (DTPA), adjusted to pH 7.4. Buffered solutions (0.1 M) for UV-Vis experiments were prepared from HCl/NaCl (pH 1.7), AcOH/AcONa (pH 3.0, 3.5, 4.0, 4.5, 5.0, 5.5), or NaPO3H2/Na2PO3H (pH 6.0, 6.5, 7.0, 8.0, 9.0, 9.5, 9.8, 10.0, 10.5, 10.6).

[2] = N2O headspace analysis (GC) of HNO production, relative to Angeli's salt; assay type: physicochemical
Experimental: Nitrous oxide is produced via the dimerization and dehydration of HNO, and is the most common marker for HNO production (Fukuto, J. M. et al., Chem. Res. Toxicol. 2005, 18, 790-801).
Gas chromatography was performed on a Varian CP-3800 instrument equipped with a 1041 manual injector, electron capture detector, and a 25 m 5 Å molecular sieve capillary column. Grade 5.0 nitrogen was used as both the carrier (8 mL/min) and the make-up (22 mL/min) gas. The injector oven and the detector oven were kept at 200° C. and 300° C., respectively. All nitrous oxide analyses were performed with the column oven held constant at 150° C. All gas injections were made using a 100 μL gastight syringe with a sample-lock. Samples were prepared in 15 mL amber headspace vials with volumes pre-measured for sample uniformity (actual vial volume ranges from 15.19-15.20 mL). Vials were charged with 5 mL of PBS buffer containing DTPA, purged with argon, and sealed with a rubber septum. The vials were equilibrated for at least 10 minutes at 37° C. in a dry block heater. A 10 mM stock solution of Angeli's salt (AS) was prepared in 10 mM sodium hydroxide, and HNO donors 1a-4a, 6a (10 mM) were prepared in acetonitrile or methanol and used immediately after preparation. From these stock solutions, 50 μL was introduced into individual thermally-equilibrated headspace vials using a gastight syringe, yielding final substrate concentrations of 0.1 mM. Substrates were then incubated long enough to ensure complete decomposition and equilibration of N2O with the headspace. The headspace (60 μL) was then sampled and injected five successive times using a gastight syringe with a sample lock. This was repeated for n≧3 vials per donor. The nitrous oxide yield was averaged and reported relative to the standard, Angeli's salt. For chemical trapping of HNO, glutathione (100 μL of 10 mM in PBS) was added prior to HNO donor addition to give a final glutathione concentration of 0.2 mM, and headspace sampling for N2O was analogously performed as stated above.

[3] = Decomposition kinetics monitored by UV-Vis spectroscopy; assay type: physicochemical
Experimental: NMR spectra were obtained on a Bruker Avance 400 MHz FT-NMR spectrometer. […] High-resolution mass spectra were obtained on a VG Analytical VG70SE magnetic sector mass spectrometer operating in fast atom bombardment (FAB) mode. […] Phosphate-buffered saline (PBS) solutions (0.1 M) were prepared with 140 mM NaCl and 3 mM KCl, with 100 μM diethylenetriaminepentaacetic acid (DTPA), adjusted to pH 7.4.

Sprague-Dawley rats = assay: Acute cardiovascular effects, pressure-volume (PV) loop analysis in anesthetized rats; assay type: in vivo, rat; conditions: IV infusion 100 μg/kg/min, 5 rats
Experimental: The acute cardiovascular effects of compounds 4a and 6a, when administered intravenously to Sprague-Dawley rats at an infusion rate of 100 μg/kg/min, were examined by means of pressure-volume (PV) curve (loops) analysis. PV families/relationships were generated via pre-load variation and hemodynamic indices were compared to baseline values. Each test article was administered to 5 rats.
Rats were intraperitoneally (IP) anesthetized to effect with pentobarbital (˜50 mg/kg), shaved and positioned in dorsal recumbence, endotracheally intubated and ventilated […], ˜2.5 mL tidal volume with 95% O2/5% CO2) with an adjustable small animal ventilator (Harvard Apparatus). Anesthesia was maintained with a continuous pentobarbital infusion (to effect, ˜3 to 5 mg/kg/h, IV) until completion of the experiment via an indwelling catheter placed in a femoral vein. Subsequently, transthoracic needle electrodes forming a single-lead ECG were placed. For LV mechano-energetic evaluation, the right carotid artery was isolated, dissected free from the surrounding tissue, and cannulated with a 2F high-fidelity conductance/micromanometer catheter (Millar Instruments). This catheter was advanced retrograde across the aortic valve and into the LV chamber in order to simultaneously determine left-ventricular pressure and volume (via conductivity). […] Meanwhile, in order to record arterial pressures, a 2F high-fidelity micromanometer catheter (Millar Instruments) was inserted into a femoral artery and advanced towards the abdominal aorta. Finally, an in-dwelling catheter was placed into the jugular vein for administration of test article.
Following collection of baseline hemodynamic data, infusion of test article was initiated at an infusion rate of 100 μg/kg/min; at 10 μL/min. Pressure-volume analyses were performed again approximately 30 min and 45 min after the initiation of the dose.
The resulting left-ventricular pressure and volume data was analyzed offline (IOX/ECG Auto; EMKA Technologies) in order to generate relationships representing the contractile and energetic state of the myocardium. Systolic (SAP), diastolic (DAP), and mean (MAP) arterial pressures were collected. Left-ventricular mechanical and/or geometrical indices were obtained from the pressure (ESP, EDP, dP/dt max/min, time-constant of relaxation—tau [based on mono-exponential decay with non-zero asymptote]) and volume (ESV, EDV, SV) signal. In addition, the following measurements were derived from left-ventricular pressure-volume data (PV loops) generated during brief periods of preload reduction: • Pressure volume area (PVA) and stroke work (SW). • End-systolic (ESPVR) and end-diastolic (EDPVR) pressure volume relationships. • End systolic pressure and stroke volume relationship (Arterial Elastance, Ea).
Data are presented as means with standard errors (mean±SEM) in Table 6.

[4] = Decomposition kinetics monitored by UV-Vis spectroscopy; assay type: physicochemical; conditions: PBS, pH 7.4, Condition A: pH 7.4, 37° C., 0.1M PBS, 100 μL DTPA, air (UV/Vis)

- pKa of byproduct [1]: ca. 4.2
Molecule: 5-(acetyl-O-methoxyoxime)-N,N-dimethylbarbituric acid [Compound 4b]

- half-life ([3]; AcOH/AcONa buffer, pH 4, pH 4.0, room temperature, read-out: half-life (converted)): ~1500 min
- half-life ([3]; PBS, pH 7.4, footnote c not given, pH 7.4, 37° C., read-out: t1/2): 9.5 min
- half-life ([3]; PBS, pH 7.4, pH 7.4 and 37° C., read-out: half-life (converted)): ~10 min
- pH near which the decomposition rate sharply increases ([3]; decomposition rate as a function of pH at 25° C., UV-Vis): ~10
- half-life [4]: 9.5 min
Molecule: CO/N=C(\C)C1(NO)C(=O)N(c2ccccc2)N=C1C (stereo not shown) [Compound 6a, 4-(N-hydroxylamine)-4-(acetyl-O-methoxyoxime)-N-phenyl-5-methyl-pyrazolone]
- HNO / N2O production (in words) ([2]; decomposition at pH 7.4): efficiently produces HNO
- % HNO ([2]; donor 0.1 mM, 37° C., PBS pH 7.4, yield relative to Angeli's salt by N2O headspace analysis, SEM ±5%, n = 3): 110%
- Mean Blood Pressure (Sprague-Dawley rats; baseline 124 (4a) / 138 (6a)): 111 mmHg
- Stroke Volume (Sprague-Dawley rats; mean, baseline 1 (4a) / 2.2 (6a)): 2.4 relative volume units
- End Diastolic Pressure Volume Relationship (Sprague-Dawley rats; mean, baseline 1.7 (4a) / 1.8 (6a)): 1.5
- End Diastolic Pressure (Sprague-Dawley rats; mean, baseline 4.7 (4a) / 4.4 (6a)): 3.6 mmHg
- Tau (Sprague-Dawley rats; mean, baseline 8.5 (4a) / 8.7 (6a)): 8.6 ms
- Arterial Elastance (Sprague-Dawley rats; mean, baseline 9.2 (4a) / 7.4 (6a)): 5.7
- End Diastolic Volume (Sprague-Dawley rats; mean, baseline 14.6 (4a) / 19.2 (6a)): 20 relative volume units
- End Systolic Pressure Volume Relationship (Sprague-Dawley rats; mean, baseline 28.1 (4a) / 23.7 (6a)): 31
- Pre-Load Recruitable Stroke Work (Sprague-Dawley rats; mean, baseline 37.6 (4a) / 42.8 (6a)): 58.2
- Diastolic Blood Pressure (Sprague-Dawley rats; mean, baseline 109 (4a) / 121 (6a)): 97 mmHg
- Stroke Work (Sprague-Dawley rats; mean, baseline 112 (4a) / 227 (6a)): 185 relative volume units × mmHg
- End Systolic Pressure (Sprague-Dawley rats; mean, baseline 134 (4a) / 141 (6a)): 113 mmHg
- Systolic Blood Pressure (Sprague-Dawley rats; mean, baseline 147 (4a) / 160 (6a)): 130 mmHg
- Pressure Volume Area (Sprague-Dawley rats; mean, baseline 343 (4a) / 590 (6a)): 318
- Heart Rate (Sprague-Dawley rats; mean, baseline 365 (4a) / 340 (6a)): 332 bp, m
- Left Ventricular +dP/dt (Sprague-Dawley rats; mean, baseline 6392 (4a) / 7689 (6a)): 6044 mmHg/s
- Left Ventricular −dP/dt (Sprague-Dawley rats; mean, baseline −7585 (4a) / −8257 (6a)): −6549 mmHg/s
